Data: ChEMBL document CHEMBL1201862, “PubChem BioAssay data set” (2004)
Active and inactive are the calls of the source.

Columns and labels:
[1] = M. tuberculosis H37Rv growth inhibitors, H37Rv strain (AID 1626); type: functional
[2] = target: T1, Polyadenylate-binding protein 1 (Homo sapiens, UniProt P11940); test: MLLE binding blockers, Cy5 peptide tracer – biochemical, fluorescence polarization, Cy5-PAM2 peptide, secondary, miRNA deadenylation inhibitor project, dose response (AID 602260); type: functional; settings: read-out: IC50_Mean
CHO = CHO cell viability loss, potency – luminescence, cytotoxicity control for TLR9-MyD88 binding inhibitor project, dose response (AID 588339); type: functional, cell-based, hamster; settings: Cricetulus griseus;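 note: CHO cells stably coexpressing TLR9 and MyD88 fusions from primary screen; compound exposure lasted 48 hours before viability readout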
[3] = target: Heat shock protein HSP 90-alpha (Homo sapiens, UniProt P07900); type: functional, organism-based
[4] = target: T2, Tyrosyl-DNA phosphodiesterase 2 (Homo sapiens, UniProt O95551); test: potency against TDP2 phosphodiesterase activity – biochemical, epi absorbance, IC50, dose response (AID 743297)
T2 sequence (O95551 whole entry): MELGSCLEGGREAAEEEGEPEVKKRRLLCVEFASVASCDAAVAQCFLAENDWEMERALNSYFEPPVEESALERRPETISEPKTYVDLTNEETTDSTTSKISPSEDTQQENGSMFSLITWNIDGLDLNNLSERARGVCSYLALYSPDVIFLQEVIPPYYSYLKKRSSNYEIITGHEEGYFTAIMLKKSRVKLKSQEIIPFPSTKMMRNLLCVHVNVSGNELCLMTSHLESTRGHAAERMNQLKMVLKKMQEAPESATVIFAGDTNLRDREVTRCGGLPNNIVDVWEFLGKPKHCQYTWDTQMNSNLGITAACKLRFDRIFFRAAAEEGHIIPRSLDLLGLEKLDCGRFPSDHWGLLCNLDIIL

Paired box protein Pax-8 = Paired box protein Pax-8 (Homo sapiens, UniProt Q06710); test: PAX8 transcriptional activity inhibition in RMG-I – RMG-I cells, luciferase, cherry-pick, dose response (AID 687027); type: functional, cell-based;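 note: luciferase reporter driven by Pax8 target thyroperoxidase promoter measured by SteadyGlo luminescence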
[5] = viability loss in THP-1 monocytes – THP-1 cells, cytotoxicity control for Vif-APOBEC3G degradation inhibitor project, dose response (AID 1117359); type: functional; settings: THP-1
Vero = test: viability of Vero cells under compound – cytotoxicity control for flavivirus capping enzyme inhibitors (AID 588742); type: functional; settings: Chlorocebus sabaeus
Beta Lactamase = Beta Lactamase (Pseudomonas aeruginosa, UniProt Q932Y6); test: BLA reporter interference, concentration series – BLA reporter cells, FRET fluorescence, artefact control for TLR9-MyD88 binding inhibitor project, dose response (AID 588341); type: cell-based;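 note: cell based assay in CHO-K1 cells stably expressing beta-lactamase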
Fatty acid synthase [6] = target: T3, Fatty acid synthase (Homo sapiens, UniProt P49327); test: inhibition of human FAS-TE enzyme activity – biochemical, endpoint fluorescence intensity, uHTS hits, dose response (AID 624327); type: functional;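 note: fluorescence from hydrolysis of an O-methyl fluorescein acyl ester substrate by the enzyme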
Hexokinase HKDC1 = target: T4, Hexokinase HKDC1 (Homo sapiens, UniProt Q2TB90); test: inhibition of HKDC1 glucose phosphorylation – biochemical, W721R variant, dose response (AID 504729); type: functional
T4 sequence (Q2TB90 whole entry): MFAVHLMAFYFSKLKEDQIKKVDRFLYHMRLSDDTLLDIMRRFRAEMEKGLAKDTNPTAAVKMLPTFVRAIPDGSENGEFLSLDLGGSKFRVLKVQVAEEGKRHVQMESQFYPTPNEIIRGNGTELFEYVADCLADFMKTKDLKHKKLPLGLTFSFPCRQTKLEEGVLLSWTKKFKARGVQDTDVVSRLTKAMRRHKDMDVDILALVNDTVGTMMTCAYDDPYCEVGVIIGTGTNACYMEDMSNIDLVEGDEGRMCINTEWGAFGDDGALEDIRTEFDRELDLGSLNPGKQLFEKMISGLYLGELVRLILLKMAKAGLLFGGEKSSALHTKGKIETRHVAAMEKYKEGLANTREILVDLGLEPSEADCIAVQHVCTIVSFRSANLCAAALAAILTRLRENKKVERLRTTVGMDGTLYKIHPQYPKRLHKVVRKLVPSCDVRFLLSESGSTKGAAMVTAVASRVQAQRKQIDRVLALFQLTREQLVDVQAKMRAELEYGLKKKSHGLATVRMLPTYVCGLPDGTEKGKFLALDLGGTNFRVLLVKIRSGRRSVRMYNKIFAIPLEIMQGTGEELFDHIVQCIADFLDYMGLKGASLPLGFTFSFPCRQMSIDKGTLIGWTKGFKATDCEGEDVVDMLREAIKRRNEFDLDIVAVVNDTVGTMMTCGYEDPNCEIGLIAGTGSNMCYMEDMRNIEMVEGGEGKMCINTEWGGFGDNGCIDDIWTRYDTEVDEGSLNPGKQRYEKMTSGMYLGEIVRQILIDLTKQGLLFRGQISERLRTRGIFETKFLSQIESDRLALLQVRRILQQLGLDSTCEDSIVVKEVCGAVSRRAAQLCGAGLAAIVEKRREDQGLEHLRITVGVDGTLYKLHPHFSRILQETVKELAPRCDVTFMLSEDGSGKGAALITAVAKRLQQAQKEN

Genome polyprotein = Genome polyprotein (dengue virus type 2, UniProt P29990); test: flavivirus cap methylation enzyme inhibition – biochemical, confirmation dose response, primary screen (AID 588689); type: functional
[7] = general cell-killing toxicity readout – plate reader, dry powder samples, cytotoxicity control for PAX8 inhibitor project, dose response (AID 743021); type: functional, cell-based
[8] = target: T1, Polyadenylate-binding protein 1; test: MLLE domain peptide-binding blockers, IC50 – biochemical, fluorescence polarization, FITC-PAM2 peptide, dose response (AID 602259); type: functional; settings: read-out: IC50_Mean
Fatty acid synthase [9] = target: T3, Fatty acid synthase; test: inhibition of human FAS-TE enzyme activity – biochemical, kinetic fluorescence intensity, dose response (AID 624326); type: functional;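 note: rate of fluorescence rise from hydrolysis of a fluorogenic O-methyl fluorescein ester substrate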
Estrogen receptor = target: T5, Estrogen receptor (Homo sapiens, UniProt P03372);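 note: potency for inhibiting coactivator peptide recruitment to the receptor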
T5 sequence (P03372 whole entry): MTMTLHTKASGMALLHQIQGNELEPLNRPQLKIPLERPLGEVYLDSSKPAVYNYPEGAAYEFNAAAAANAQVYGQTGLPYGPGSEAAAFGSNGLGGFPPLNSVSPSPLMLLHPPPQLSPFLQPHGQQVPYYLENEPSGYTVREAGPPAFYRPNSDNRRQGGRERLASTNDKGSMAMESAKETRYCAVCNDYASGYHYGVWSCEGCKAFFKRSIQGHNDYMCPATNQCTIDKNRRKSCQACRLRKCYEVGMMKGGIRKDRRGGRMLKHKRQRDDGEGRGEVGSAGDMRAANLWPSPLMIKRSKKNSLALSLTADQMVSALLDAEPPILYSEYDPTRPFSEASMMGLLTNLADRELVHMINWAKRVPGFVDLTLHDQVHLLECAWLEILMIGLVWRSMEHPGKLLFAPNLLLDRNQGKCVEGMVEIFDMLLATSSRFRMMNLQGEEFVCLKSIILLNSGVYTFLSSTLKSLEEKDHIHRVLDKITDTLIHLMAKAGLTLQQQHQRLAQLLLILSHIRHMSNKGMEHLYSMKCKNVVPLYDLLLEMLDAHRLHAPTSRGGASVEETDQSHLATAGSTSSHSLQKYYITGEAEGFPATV

cells = type: functional
Mucolipin-3 = target: T6, Mucolipin-3 (Homo sapiens, UniProt Q8TDD5); test: Dose response cell-based high-throughput screening assay for agonists of the transient receptor potential channel ML3 (TRPML3). [Related pubchem assays: 1526, 1424, 1448 ]; type: functional
T6 sequence (Q8TDD5 whole entry): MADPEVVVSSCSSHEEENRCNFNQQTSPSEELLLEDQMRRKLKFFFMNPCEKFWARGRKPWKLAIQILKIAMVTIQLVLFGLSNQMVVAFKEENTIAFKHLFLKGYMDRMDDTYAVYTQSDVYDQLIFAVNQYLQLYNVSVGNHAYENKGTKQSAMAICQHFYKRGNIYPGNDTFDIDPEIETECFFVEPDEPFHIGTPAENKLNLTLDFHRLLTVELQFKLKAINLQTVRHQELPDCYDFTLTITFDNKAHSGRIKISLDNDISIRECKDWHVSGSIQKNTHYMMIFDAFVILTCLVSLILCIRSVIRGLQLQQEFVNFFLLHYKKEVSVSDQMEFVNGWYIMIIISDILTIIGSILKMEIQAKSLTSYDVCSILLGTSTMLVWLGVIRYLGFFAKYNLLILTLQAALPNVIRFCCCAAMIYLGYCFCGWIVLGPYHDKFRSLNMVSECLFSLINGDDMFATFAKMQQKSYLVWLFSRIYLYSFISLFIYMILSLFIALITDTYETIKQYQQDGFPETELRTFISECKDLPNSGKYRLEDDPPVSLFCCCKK

Ion channel NompC = Ion channel NompC (Danio rerio, UniProt Q7T1G6); test: Fluorescence counterscreen assay for TRPML3 agonists: dose response cell-based high-throughput screening assay to identify agonists of the transient receptor potential channel N1 (TRPN1). [Related pubchem assays: 1526, 1424, 1448 ]; type: functional

T3 sequence (P49327 whole entry): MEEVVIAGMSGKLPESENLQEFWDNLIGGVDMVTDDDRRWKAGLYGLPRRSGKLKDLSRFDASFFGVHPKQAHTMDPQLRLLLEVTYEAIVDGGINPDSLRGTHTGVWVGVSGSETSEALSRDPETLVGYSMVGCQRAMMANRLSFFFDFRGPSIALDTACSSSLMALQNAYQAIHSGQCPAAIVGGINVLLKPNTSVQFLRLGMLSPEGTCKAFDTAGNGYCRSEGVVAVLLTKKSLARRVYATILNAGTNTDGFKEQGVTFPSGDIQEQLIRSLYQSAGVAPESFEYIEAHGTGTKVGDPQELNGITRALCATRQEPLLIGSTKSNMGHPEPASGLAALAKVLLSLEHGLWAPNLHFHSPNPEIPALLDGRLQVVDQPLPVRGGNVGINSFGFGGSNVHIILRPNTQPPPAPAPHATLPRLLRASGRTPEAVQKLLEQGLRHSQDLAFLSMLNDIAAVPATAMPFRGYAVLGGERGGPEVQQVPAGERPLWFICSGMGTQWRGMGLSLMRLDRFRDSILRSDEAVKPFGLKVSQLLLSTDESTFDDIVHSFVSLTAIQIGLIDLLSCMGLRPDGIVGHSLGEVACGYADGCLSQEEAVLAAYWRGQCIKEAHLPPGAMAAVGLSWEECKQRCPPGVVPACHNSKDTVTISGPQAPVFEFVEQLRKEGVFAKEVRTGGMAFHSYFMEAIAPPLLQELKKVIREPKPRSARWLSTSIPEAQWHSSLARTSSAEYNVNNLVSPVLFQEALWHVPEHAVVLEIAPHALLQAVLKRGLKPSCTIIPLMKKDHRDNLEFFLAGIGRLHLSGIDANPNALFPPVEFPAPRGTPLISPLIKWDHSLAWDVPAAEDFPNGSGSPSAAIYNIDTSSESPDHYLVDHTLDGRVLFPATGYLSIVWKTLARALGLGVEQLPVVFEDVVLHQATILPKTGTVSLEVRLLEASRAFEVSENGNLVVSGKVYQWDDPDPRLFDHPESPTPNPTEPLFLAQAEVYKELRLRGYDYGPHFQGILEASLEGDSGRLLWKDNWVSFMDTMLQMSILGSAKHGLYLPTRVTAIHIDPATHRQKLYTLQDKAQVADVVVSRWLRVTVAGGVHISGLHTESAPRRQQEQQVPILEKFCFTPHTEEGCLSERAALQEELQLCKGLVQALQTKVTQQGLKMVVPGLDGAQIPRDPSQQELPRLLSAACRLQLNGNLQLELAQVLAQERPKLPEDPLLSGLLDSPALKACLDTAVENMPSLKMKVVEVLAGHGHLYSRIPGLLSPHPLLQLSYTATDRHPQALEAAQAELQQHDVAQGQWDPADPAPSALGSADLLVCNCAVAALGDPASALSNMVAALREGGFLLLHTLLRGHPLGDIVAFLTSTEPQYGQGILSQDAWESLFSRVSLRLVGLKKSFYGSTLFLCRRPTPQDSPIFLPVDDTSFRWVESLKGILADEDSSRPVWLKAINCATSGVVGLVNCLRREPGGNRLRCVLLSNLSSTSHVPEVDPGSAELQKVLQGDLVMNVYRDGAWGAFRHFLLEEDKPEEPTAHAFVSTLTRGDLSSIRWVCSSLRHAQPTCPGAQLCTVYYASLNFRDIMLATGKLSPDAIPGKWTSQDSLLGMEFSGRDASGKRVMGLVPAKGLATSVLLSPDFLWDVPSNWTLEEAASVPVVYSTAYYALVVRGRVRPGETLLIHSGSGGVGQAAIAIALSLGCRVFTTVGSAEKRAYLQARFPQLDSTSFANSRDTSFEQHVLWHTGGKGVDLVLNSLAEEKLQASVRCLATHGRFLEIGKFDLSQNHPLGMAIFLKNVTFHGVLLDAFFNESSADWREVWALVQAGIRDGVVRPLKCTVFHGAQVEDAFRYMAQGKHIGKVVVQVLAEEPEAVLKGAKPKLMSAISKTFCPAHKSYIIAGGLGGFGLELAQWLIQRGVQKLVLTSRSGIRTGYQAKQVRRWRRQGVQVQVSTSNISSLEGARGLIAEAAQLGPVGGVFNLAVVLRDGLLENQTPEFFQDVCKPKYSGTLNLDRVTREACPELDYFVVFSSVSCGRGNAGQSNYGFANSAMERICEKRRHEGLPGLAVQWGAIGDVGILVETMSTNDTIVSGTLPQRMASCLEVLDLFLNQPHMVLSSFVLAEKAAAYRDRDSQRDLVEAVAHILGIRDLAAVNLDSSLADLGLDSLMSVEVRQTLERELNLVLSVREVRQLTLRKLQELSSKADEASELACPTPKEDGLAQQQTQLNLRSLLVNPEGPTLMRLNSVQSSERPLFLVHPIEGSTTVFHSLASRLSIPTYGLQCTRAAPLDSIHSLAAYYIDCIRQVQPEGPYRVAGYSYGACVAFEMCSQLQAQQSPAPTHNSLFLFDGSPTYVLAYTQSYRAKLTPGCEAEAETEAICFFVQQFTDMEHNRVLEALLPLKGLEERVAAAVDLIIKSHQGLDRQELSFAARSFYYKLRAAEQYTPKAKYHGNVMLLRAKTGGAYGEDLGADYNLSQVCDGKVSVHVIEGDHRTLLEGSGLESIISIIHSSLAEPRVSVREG
T1 sequence (P11940 whole entry, the tested form may be a part): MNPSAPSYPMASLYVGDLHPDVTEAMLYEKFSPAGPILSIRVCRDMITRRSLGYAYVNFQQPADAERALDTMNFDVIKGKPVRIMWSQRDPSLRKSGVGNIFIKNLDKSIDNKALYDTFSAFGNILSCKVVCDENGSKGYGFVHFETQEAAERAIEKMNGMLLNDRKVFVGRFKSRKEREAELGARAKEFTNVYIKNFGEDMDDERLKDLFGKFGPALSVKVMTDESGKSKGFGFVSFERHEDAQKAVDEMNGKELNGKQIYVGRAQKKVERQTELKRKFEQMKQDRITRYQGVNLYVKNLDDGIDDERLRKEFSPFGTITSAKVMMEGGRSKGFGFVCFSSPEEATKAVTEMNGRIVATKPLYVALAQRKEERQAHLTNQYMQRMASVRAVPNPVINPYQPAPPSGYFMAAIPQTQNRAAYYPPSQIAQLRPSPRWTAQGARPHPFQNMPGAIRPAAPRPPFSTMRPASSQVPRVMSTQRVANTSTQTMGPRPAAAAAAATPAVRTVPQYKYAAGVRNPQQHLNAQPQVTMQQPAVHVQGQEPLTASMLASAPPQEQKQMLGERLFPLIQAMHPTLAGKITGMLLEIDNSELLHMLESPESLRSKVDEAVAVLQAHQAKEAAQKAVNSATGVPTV
Beta Lactamase, sequence (Q932Y6 whole entry): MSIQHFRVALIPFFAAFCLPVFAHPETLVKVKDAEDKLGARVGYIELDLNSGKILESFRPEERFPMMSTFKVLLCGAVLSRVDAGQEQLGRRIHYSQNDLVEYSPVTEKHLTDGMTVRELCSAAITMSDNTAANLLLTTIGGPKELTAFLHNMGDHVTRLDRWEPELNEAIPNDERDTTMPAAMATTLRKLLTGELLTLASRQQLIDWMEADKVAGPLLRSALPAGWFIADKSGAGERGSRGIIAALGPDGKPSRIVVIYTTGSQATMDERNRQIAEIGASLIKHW
Paired box protein Pax-8, sequence (Q06710 whole entry): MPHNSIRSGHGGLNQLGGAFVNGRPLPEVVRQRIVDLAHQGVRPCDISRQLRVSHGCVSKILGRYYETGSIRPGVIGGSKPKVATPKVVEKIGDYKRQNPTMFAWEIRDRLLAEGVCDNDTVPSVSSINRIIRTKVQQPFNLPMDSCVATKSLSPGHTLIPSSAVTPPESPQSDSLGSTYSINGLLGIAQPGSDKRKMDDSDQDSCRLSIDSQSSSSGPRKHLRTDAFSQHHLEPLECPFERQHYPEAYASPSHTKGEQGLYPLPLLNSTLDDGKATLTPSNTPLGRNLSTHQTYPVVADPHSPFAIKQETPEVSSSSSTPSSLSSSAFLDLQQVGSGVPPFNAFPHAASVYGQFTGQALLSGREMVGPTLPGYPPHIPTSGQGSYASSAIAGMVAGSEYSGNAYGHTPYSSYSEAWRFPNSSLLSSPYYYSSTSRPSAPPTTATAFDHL
Genome polyprotein, sequence (P29990 2492-3391 limits assumed): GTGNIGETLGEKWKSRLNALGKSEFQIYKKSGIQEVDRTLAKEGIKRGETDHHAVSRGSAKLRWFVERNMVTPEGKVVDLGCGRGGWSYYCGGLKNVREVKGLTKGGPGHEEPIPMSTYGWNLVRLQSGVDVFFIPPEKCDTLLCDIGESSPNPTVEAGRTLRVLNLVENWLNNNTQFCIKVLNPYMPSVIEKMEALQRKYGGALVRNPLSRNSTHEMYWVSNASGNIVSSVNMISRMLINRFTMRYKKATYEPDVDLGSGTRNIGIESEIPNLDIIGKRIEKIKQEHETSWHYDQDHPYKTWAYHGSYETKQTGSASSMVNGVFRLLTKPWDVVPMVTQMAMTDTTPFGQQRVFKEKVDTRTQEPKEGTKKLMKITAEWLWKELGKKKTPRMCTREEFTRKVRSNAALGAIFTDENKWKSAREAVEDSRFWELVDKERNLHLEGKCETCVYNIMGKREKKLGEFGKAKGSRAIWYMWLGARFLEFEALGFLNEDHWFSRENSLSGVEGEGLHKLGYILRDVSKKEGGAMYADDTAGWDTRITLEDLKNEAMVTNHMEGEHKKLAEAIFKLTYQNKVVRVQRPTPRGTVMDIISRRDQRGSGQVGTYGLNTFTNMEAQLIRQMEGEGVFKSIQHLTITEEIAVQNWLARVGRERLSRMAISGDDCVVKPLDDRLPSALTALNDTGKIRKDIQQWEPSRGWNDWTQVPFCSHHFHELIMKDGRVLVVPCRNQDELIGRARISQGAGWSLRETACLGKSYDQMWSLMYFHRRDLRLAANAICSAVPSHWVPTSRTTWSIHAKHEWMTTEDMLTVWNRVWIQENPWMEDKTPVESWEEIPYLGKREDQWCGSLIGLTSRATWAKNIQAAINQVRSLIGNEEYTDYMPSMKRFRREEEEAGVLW

SMILES: Cc1sc(N)nc1-c1ccccc1
- IC50 [1]: > 100 µM (active)

SMILES: O/N=C/c1ccc2ccccc2c1
- IC50 [1]: > 100 µM (active)

SMILES: CCCC(=O)NC1=C(Cl)C(=O)c2ccccc2C1=O
- IC50 [2]: > 66 µM (inactive)
- IC50 (CHO): 0.891 µM (active)
- AC50 [3]: < 0.195 µM (active)
- IC50 [4]: 11.8 µM (inactive)
- AC50 (Paired box protein Pax-8): 2.54 µM (active)
- CC50 [5]: 3.81 µM (active)
- CC50 (Vero): 27.4 µM (active)
- IC50 (Beta Lactamase): 6.78 µM (active)
- IC50 (Fatty acid synthase [6]): 37.7 µM (inactive)
- IC50 (Hexokinase HKDC1): 3.93 µM (active)
- IC50 (Genome polyprotein): 14.5 µM (active)
- AC50 [7]: 28.3 µM (active)
- IC50 [8]: > 66 µM (inactive)
- IC50 (Fatty acid synthase [9]): 12.7 µM (active)

SMILES: CCOc1cccc(-c2nnc3sc(-c4cc(OC)c(OC)c(OC)c4)nn23)c1
- IC50 (Estrogen receptor): > 50 µM (not active)

SMILES: CCOC(=O)c1ccc(-n2c(CCC(=O)O)ccc2-c2cccs2)cc1
- IC50 [1]: > 100 µM (active)
- IC50 (cells): 36.2 µM (active)

SMILES: CCC1CCCCN1S(=O)(=O)c1ccccc1[N+](=O)[O-] (stereo unspecified)
- EC50 (Mucolipin-3): 6.06 µM (active)
- EC50 (Ion channel NompC): > 29.9 µM (not active)
